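Assay format: 96-well plates, 48-hour exposure. TGI denotes the concentration required for complete inhibition of growth.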

Among the test systems are SF-539 CNS; HT29 colon; OVCAR-8 ovarian; HL-60(TB) leukemia; SK-OV-3 ovarian; HCT-116 colon; U251 CNS; MALME-3M melanoma; OVCAR-5 ovarian; OVCAR-3 ovarian; SNB-75 CNS; MCF7 breast; LOX IMVI melanoma; HCC-2998 colon; IGROV1 ovarian; SK-MEL-5 melanoma; MOLT-4 leukemia; A549 NSCLC; A498 renal.
Holding throughout (assay): inhibition of tumour cell growth, NCI panel, 48 h

`CC1(C)COC(c2cccc(C(O)c3ccc(Cl)cc3)c2)=N1` (stereo unspecified): the TGI with SF-539 CNS is 42.5 µM; in the assay on HT29 colon, 37.2 µM; with OVCAR-8 ovarian, 42.3 µM; in the assay on HL-60(TB) leukemia, > 100 µM; with SK-OV-3 ovarian, 65.1 µM; with HCT-116 colon it was 37.9 µM. Moreover, the TGI in the assay with U251 CNS was 59.6 µM; in the assay with MALME-3M melanoma it was 59.9 µM; in the assay on OVCAR-5 ovarian it was 45.5 µM; with OVCAR-3 ovarian, 45.7 µM; in the assay on SNB-75 CNS it was 60.5 µM; in the assay on MCF7 breast, 39.6 µM. Further, the TGI in the assay with LOX IMVI melanoma was 29.1 µM; with HCC-2998 colon, 64.7 µM; in the assay on IGROV1 ovarian it was > 100 µM; with SK-MEL-5 melanoma, 28.6 µM; in the assay on MOLT-4 leukemia, 59.3 µM.

As for `Cc1ccc(N=NC(=O)NNc2ccc(C)cc2Br)c(Br)c1`, the TGI was > 100 µM with HT29 colon; 62 µM in the assay with OVCAR-8 ovarian; 63 µM in the assay with HL-60(TB) leukemia; > 100 µM in the assay with A549 NSCLC; 52.3 µM with A498 renal; 24.6 µM with HCT-116 colon. The TGI in the assay with U251 CNS was 34.9 µM; in the assay on MALME-3M melanoma it was 36.4 µM; in the assay with OVCAR-5 ovarian it was 68.4 µM; with OVCAR-3 ovarian it was 41.2 µM; in the assay on SNB-75 CNS, > 100 µM; in the assay on MCF7 breast, 41.3 µM. Further, the TGI with LOX IMVI melanoma amounted to 34.5 µM; in the assay with HCC-2998 colon, 31.3 µM; in the assay with IGROV1 ovarian, 63.8 µM; in the assay on SK-MEL-5 melanoma, 33.9 µM; with MOLT-4 leukemia it was 60.4 µM.

Consider `CC1=C(C)C2(C#N)C(=O)N3C(=NC(c4ccco4)NC3c3ccco3)C2(C#N)C(c2ccco2)N1` (stereo unspecified), for which the TGI in the assay on HT29 colon, in the assay on OVCAR-8 ovarian, in the assay with HL-60(TB) leukemia, with A549 NSCLC, with A498 renal and in the assay with SK-OV-3 ovarian was > 100 µM in each case. The TGI with HCT-116 colon, in the assay with U251 CNS, in the assay with MALME-3M melanoma, with OVCAR-5 ovarian, with MCF7 breast and in the assay on LOX IMVI melanoma was > 100 µM throughout. Besides, the TGI in the assay with HCC-2998 colon, with IGROV1 ovarian, in the assay with SK-MEL-5 melanoma and in the assay with MOLT-4 leukemia was > 100 µM each time.

For the compound `COc1cc2c(cc1OC)C1CN3CCCC3C(O)C1c1cc(OC)c(OC)cc1-2` (stereo unspecified), the TGI in the assay on HT29 colon, in the assay with OVCAR-8 ovarian, with HL-60(TB) leukemia, in the assay with A549 NSCLC, in the assay on A498 renal and in the assay with SK-OV-3 ovarian was > 100 µM in each case. For the same compound, the TGI in the assay on HCT-116 colon, in the assay on U251 CNS, with MALME-3M melanoma, in the assay with OVCAR-5 ovarian, in the assay on MCF7 breast and in the assay with LOX IMVI melanoma was > 100 µM in each case. Further, the TGI with HCC-2998 colon, with IGROV1 ovarian, with SK-MEL-5 melanoma and in the assay on MOLT-4 leukemia was > 100 µM in each case.

On to `CN(C)CCNc1ncnc2nc(-c3ccccc3)c(-c3ccccc3)nc12`, for which the TGI in the assay on SF-539 CNS, in the assay on HT29 colon, in the assay with OVCAR-8 ovarian, with HL-60(TB) leukemia, in the assay with A549 NSCLC and in the assay with A498 renal was > 100 µM throughout. The TGI in the assay with SK-OV-3 ovarian, in the assay on HCT-116 colon, in the assay on U251 CNS, in the assay on MALME-3M melanoma, in the assay on OVCAR-5 ovarian and with OVCAR-3 ovarian was > 100 µM each time. The TGI with SNB-75 CNS is > 100 µM; with MCF7 breast, > 100 µM; in the assay on LOX IMVI melanoma, > 100 µM; with IGROV1 ovarian, > 100 µM; with SK-MEL-5 melanoma, > 100 µM; in the assay with MOLT-4 leukemia it was 76 µM.

For the compound `CN1CC=C(C#CC(C)(C)O)CC1`, the TGI in the assay with HT29 colon, with OVCAR-8 ovarian, in the assay on HL-60(TB) leukemia, with A549 NSCLC, in the assay on SK-OV-3 ovarian and with HCT-116 colon was > 37.5 µM throughout. The TGI with U251 CNS, in the assay with MALME-3M melanoma, in the assay with OVCAR-5 ovarian, in the assay on OVCAR-3 ovarian, in the assay with SNB-75 CNS and with MCF7 breast was > 37.5 µM each time. Also, the TGI in the assay on LOX IMVI melanoma, with HCC-2998 colon, in the assay on IGROV1 ovarian, in the assay with SK-MEL-5 melanoma and in the assay with MOLT-4 leukemia was > 37.5 µM each time.

Take `Cc1ccc(NC(=O)CC(=O)N2N=C(N(c3ccccc3)c3ccccc3)CC2c2ccccc2)cc1` (stereo unspecified): the TGI with SF-539 CNS, with HT29 colon, in the assay with OVCAR-8 ovarian, in the assay on HL-60(TB) leukemia, in the assay on A549 NSCLC and with A498 renal was > 100 µM in each case. In addition, the TGI in the assay with SK-OV-3 ovarian, in the assay with HCT-116 colon, with U251 CNS, with OVCAR-5 ovarian, in the assay on OVCAR-3 ovarian and in the assay with SNB-75 CNS was > 100 µM each time. Further, the TGI with MCF7 breast, in the assay on HCC-2998 colon, in the assay on IGROV1 ovarian, with SK-MEL-5 melanoma and in the assay with MOLT-4 leukemia was > 100 µM in each case.

With `C#CC(O)/C=C/C(O)CCCC(O)CC#CC(O)C#CCCCCC(O)/C=C/CCCCCC(=O)CCCCCCCCCCCCCC(O)C(O)C#CC(=O)O` (stereo unspecified), the TGI in the assay on HT29 colon, in the assay with OVCAR-8 ovarian, in the assay on HL-60(TB) leukemia, in the assay on A549 NSCLC, in the assay on A498 renal and in the assay on SK-OV-3 ovarian was > 25 µM in each case. The TGI in the assay on HCT-116 colon, in the assay with U251 CNS, in the assay with MALME-3M melanoma, with OVCAR-5 ovarian, with SNB-75 CNS and in the assay with MCF7 breast was > 25 µM throughout. The TGI in the assay with LOX IMVI melanoma is 9.88 µM; with HCC-2998 colon, > 25 µM; in the assay with IGROV1 ovarian, 9.59 µM; in the assay with SK-MEL-5 melanoma it was > 25 µM; in the assay on MOLT-4 leukemia, > 25 µM.

For `Cc1ccc(S(=O)(=O)NC(=O)NC(CCCCN)C(=O)O)cc1` (stereo unspecified), the TGI in the assay with SF-539 CNS, in the assay on OVCAR-8 ovarian, in the assay with HL-60(TB) leukemia, in the assay with A549 NSCLC, in the assay with SK-OV-3 ovarian and with HCT-116 colon was > 100 µM in each case. Besides, the TGI in the assay with U251 CNS, in the assay on MALME-3M melanoma, in the assay on SNB-75 CNS, with MCF7 breast, in the assay with LOX IMVI melanoma and in the assay on IGROV1 ovarian was > 100 µM each time. For the same compound, the TGI in the assay on SK-MEL-5 melanoma and in the assay on MOLT-4 leukemia was > 100 µM in each case.

With `C=C1C(=O)O[C@H]2C(=O)[C@H](C)CCC/C(C)=C/CC[C@@]3(C)O[C@@H]3C[C@@H]12`, the TGI is 6.63 µM in the assay on SF-539 CNS; 10.6 µM with HT29 colon; 3.59 µM in the assay with OVCAR-8 ovarian; 6.8 µM in the assay on HL-60(TB) leukemia; 21.4 µM in the assay with A549 NSCLC; 32.8 µM in the assay with A498 renal. Moreover, the TGI with SK-OV-3 ovarian stood at 30.3 µM; with HCT-116 colon, 2.26 µM; in the assay with U251 CNS it was 13.3 µM; with OVCAR-5 ovarian, 18.9 µM; with OVCAR-3 ovarian, 3.52 µM; in the assay with MCF7 breast, 15 µM. Also, the TGI in the assay on LOX IMVI melanoma came to 3.03 µM; in the assay with IGROV1 ovarian, 10.2 µM; with SK-MEL-5 melanoma it was 20.7 µM; in the assay with MOLT-4 leukemia, 4.72 µM.

For `COc1ccc(/C=N/NS(=O)(=O)c2ccc(/C=C3\NC(=O)NC3=O)cc2)cc1`, the TGI with HT29 colon, in the assay with OVCAR-8 ovarian, in the assay on HL-60(TB) leukemia, with A549 NSCLC, in the assay on A498 renal and in the assay on SK-OV-3 ovarian was > 100 µM each time. For the same compound, the TGI with HCT-116 colon is > 100 µM; in the assay on U251 CNS it was > 100 µM; in the assay on MALME-3M melanoma it was > 100 µM; in the assay with OVCAR-5 ovarian, > 100 µM; with OVCAR-3 ovarian it was > 100 µM; in the assay on SNB-75 CNS it was 77.9 µM. In addition, the TGI with MCF7 breast, with LOX IMVI melanoma, in the assay on HCC-2998 colon, in the assay with IGROV1 ovarian, in the assay on SK-MEL-5 melanoma and in the assay with MOLT-4 leukemia was > 100 µM each time.

Take `O=C(c1ccc(Cl)c(Cl)c1)N(C(=S)OC12CC3CC(CC(C3)C1)C2)c1ccccc1`: the TGI is > 100 µM in the assay with SF-539 CNS; > 100 µM in the assay with HT29 colon; > 100 µM in the assay with OVCAR-8 ovarian; 69.9 µM with HL-60(TB) leukemia; > 100 µM in the assay on A549 NSCLC; > 100 µM in the assay on A498 renal. Further, the TGI is > 100 µM in the assay with SK-OV-3 ovarian; 68.8 µM in the assay with HCT-116 colon; > 100 µM in the assay with U251 CNS; > 100 µM in the assay with MALME-3M melanoma; > 100 µM with OVCAR-5 ovarian; > 100 µM with OVCAR-3 ovarian. For the same compound, the TGI is > 100 µM in the assay with SNB-75 CNS, > 100 µM in the assay on MCF7 breast, > 100 µM with HCC-2998 colon and 40.1 µM in the assay with SK-MEL-5 melanoma.

On to `COc1ccc(C[C@@H]2OC3(C=CC(=O)CC3Sc3ccccc3)O[C@H]2Cc2ccc(OC)cc2)cc1` (stereo partly specified), for which the TGI worked out at 3 µM in the assay with SF-539 CNS; 3.19 µM with HT29 colon; 0.966 µM in the assay with OVCAR-8 ovarian; 6.06 µM in the assay on HL-60(TB) leukemia; 12.7 µM in the assay with A549 NSCLC; 16.1 µM in the assay on A498 renal. Besides, the TGI in the assay on SK-OV-3 ovarian came to 7.84 µM; with U251 CNS, 2.78 µM; in the assay with MALME-3M melanoma it was 4.02 µM; in the assay with OVCAR-5 ovarian, 2.58 µM; with OVCAR-3 ovarian, 3.15 µM; in the assay with SNB-75 CNS, 3.05 µM. Besides, the TGI with MCF7 breast worked out at 1.98 µM; in the assay on LOX IMVI melanoma, 1.72 µM; in the assay on IGROV1 ovarian, 2.13 µM; in the assay on SK-MEL-5 melanoma, 3.09 µM; in the assay with MOLT-4 leukemia it was 2.18 µM.

(Values after PubChem BioAssay (NCI).)
